How the values were obtained:
[1] = system: Fusarium culmorum; experiment: Inhibition of phytopathogenic fungi, field test on affected potato plants; format: in vivo; conditions: 5 m^2 plots of affected potato plants sprayed
Source text: (§1) For field tests the plots of 5 m^2 in size with potato plants affected by Fusarium moniliforme, Venturia inaequalis, Rhyzoctonia violaceae, Botrytis cinereae, Verticillium albo-atrum, Diplodia zeae, Fusarium oxysporum, Rhoma betae, Rhyzoctonia aderholdii, Aspergillus niger, Alternaria sobani, Botrytis allii, Aspergillus fumigatis, Fusarium culmorum, Penicillium cyclopium were sprayed with the fungicide of the invention. To compare, the similar plots of the affected potato plants were aprayed with the known compositions indicated above.

[2] = system: Aspergillus fumigatis; experiment: as above; format: in vivo; conditions: 5 m^2 plots of affected potato plants sprayed
Source text: as §1

[3] = system: Aspergillus niger; experiment: as above; format: in vivo; conditions: 5 m^2 plots of affected potato plants sprayed
Source text: as §1

[4] = system: Penicillium cyclopium; experiment: as above; format: in vivo; conditions: 5 m^2 plots of affected potato plants sprayed
Source text: as §1

[5] = system: Rhyzoctonia aderholdii; experiment: as above; format: in vivo; conditions: 5 m^2 plots of affected potato plants sprayed
Source text: as §1

[6] = system: Rhoma betae; experiment: as above; format: in vivo; conditions: 5 m^2 plots of affected potato plants sprayed
Source text: as §1

[7] = system: Fusarium culmorum; experiment: Inhibition of phytopathogenic fungi growth, laboratory test on potato-dextrose agar; format: cell-based; conditions: active principle 0.01 % by mass in potato-dextrose agar
Description: (§2) A fungicidal composition based on this compound was prepared in the form of a 0.01% solution thereof in distilled water. A fungicidal action of the composition, according to the invention, was tested for inhibition of vegetative fungi growth such as Fusarium moniliforme, Ventura inaequalis, Rhyzoctonia ciolaceae, Botrytis cinereae, Verticillium albo-atrum, Diplodia zeae, Fusarium oxysporum, Rhoma betae, Rhyzoctonia aderholdii, Aspergillus niger, Alternaria sobani, Botrytis allii, Aspergillus fumigatis, Fusarium culmorum, Penicillium cyclopium affecting potato, sugar beet, cotton seeds either in laboratory or field conditions. For testing it to the Petri dishes containing potato-dextrose agar the composition of the invention was.added at the concentration of an active principle of 0.01 % by mass. The Petri dishes containing the same agar culture were inoculated with a mycelium of phytopathogenic fungi. For control dishes the phytopathogenic fungi were inoculated on agar without using the composition of the invention. A fungicidal effect of the composition, according to the invention was tested in comparison with the known fungicidal compositions based on 2,3-dichloro-1,4-naphthoquinone, zinc N,N'-ethylene-bis-dithiocarbamate and tetramethylthiuram disulphide.

[8] = system: Aspergillus fumigatis; experiment: as above; format: cell-based; conditions: active principle 0.01 % by mass in potato-dextrose agar
Description: as §2

[9] = system: Aspergillus niger; experiment: as above; format: cell-based; conditions: active principle 0.01 % by mass in potato-dextrose agar
Description: as §2

[10] = system: Penicillium cyclopium; experiment: as above; format: cell-based; conditions: active principle 0.01 % by mass in potato-dextrose agar
Description: as §2

[11] = system: Rhyzoctonia aderholdii; experiment: as above; format: cell-based; conditions: active principle 0.01 % by mass in potato-dextrose agar
Description: as §2

[12] = system: Rhoma betae; experiment: as above; format: cell-based; conditions: active principle 0.01 % by mass in potato-dextrose agar
Description: as §2

[13] = system: Alternaria sobani; experiment: Inhibition of phytopathogenic fungi, field test on affected potato plants; format: in vivo; conditions: 5 m^2 plots of affected potato plants sprayed
Source text: as §1

[14] = system: Venturia inaequalis; experiment: as above; format: in vivo; conditions: 5 m^2 plots of affected potato plants sprayed
Source text: as §1

[15] = system: Botrytis allii; experiment: as above; format: in vivo; conditions: 5 m^2 plots of affected potato plants sprayed
Source text: as §1

[16] = system: Rhyzoctonia violaceae; experiment: as above; format: in vivo; conditions: 5 m^2 plots of affected potato plants sprayed
Source text: as §1

[17] = system: Verticillium albo-atrum; experiment: as above; format: in vivo; conditions: 5 m^2 plots of affected potato plants sprayed
Source text: as §1

[18] = system: Diplodia zeae; experiment: as above; format: in vivo; conditions: 5 m^2 plots of affected potato plants sprayed
Source text: as §1

[19] = system: Fusarium oxysporum; experiment: as above; format: in vivo; conditions: 5 m^2 plots of affected potato plants sprayed
Source text: as §1

[20] = system: Fusarium moniliforme; experiment: as above; format: in vivo; conditions: 5 m^2 plots of affected potato plants sprayed
Source text: as §1

[21] = system: Botrytis cinereae; experiment: as above; format: in vivo; conditions: 5 m^2 plots of affected potato plants sprayed
Source text: as §1

[22] = system: Alternaria sobani; experiment: Inhibition of phytopathogenic fungi growth, laboratory test on potato-dextrose agar; format: cell-based; conditions: active principle 0.01 % by mass in potato-dextrose agar
Description: as §2

[23] = system: Venturia inaequalis; experiment: as above; format: cell-based; conditions: active principle 0.01 % by mass in potato-dextrose agar
Description: as §2

[24] = system: Botrytis allii; experiment: as above; format: cell-based; conditions: active principle 0.01 % by mass in potato-dextrose agar
Description: as §2

[25] = system: Rhyzoctonia violaceae; experiment: as above; format: cell-based; conditions: active principle 0.01 % by mass in potato-dextrose agar
Description: as §2

[26] = system: Verticillium albo-atrum; experiment: as above; format: cell-based; conditions: active principle 0.01 % by mass in potato-dextrose agar
Description: as §2

[27] = system: Diplodia zeae; experiment: as above; format: cell-based; conditions: active principle 0.01 % by mass in potato-dextrose agar
Description: as §2

[28] = system: Fusarium oxysporum; experiment: as above; format: cell-based; conditions: active principle 0.01 % by mass in potato-dextrose agar
Description: as §2

[29] = system: Fusarium moniliforme; experiment: as above; format: cell-based; conditions: active principle 0.01 % by mass in potato-dextrose agar
Description: as §2

[30] = system: Botrytis cinereae; experiment: as above; format: cell-based; conditions: active principle 0.01 % by mass in potato-dextrose agar
Description: as §2

[31] = system: domestic flies; experiment: Insecticidal activity on domestic flies, laboratory test (gauze boxes); format: in vivo; conditions: 0.1% solution in 5% aqueous glucose solution; 50 flies per box; count in 72 hours
Description: (§3) Based on the compound there was prepared an insecticidal composition in the form of a 0.1% solution thereof in a 5% aqueous glucose solution. The activity of the insecticidal composition, according to the invention was tested on domestic flies. To this end, into the gauze-made boxes of 10x10 cm in size (6 boxes) 6-7-day flies of both sexes were placed at the rate of 50 individuals per each box. Into 5 boxes there were placed Petri dishes with a 5% aqueous glycose solutiono An insecticidal activity of the composition, according to the invention, was tested in com- parison with an insecticidal composition based on 0,0-dimethyl(1-hydroxy-2,2,2-trichloroethyl)phosphonate. The tests were also conducted in living and production premises. For this, Petri dishes containing a 0.1% aqueous solution of the insecticide of the invention, to which a 5% glucose solution was added, were put at a rate of 2-3 dishes per 20 m^2. The activity of the composition, according to the invention, was evaluated by a direct count of dead insects in 72 hours or by using the adhesive tapes and counting the number of flies on the tape prior and after the test.

[32] = Solubility (qualitative); conditions: water, alcohols, acetone
[33] = system: domestic flies; experiment: Insecticidal activity on flies, large-scale test in living and production premises; format: in vivo; conditions: 0.1% aqueous solution with 5% glucose, 2-3 dishes per 20 m^2, living and production premises; 72 hours
Description: as §3

CN(C)C(=S)SSC(=S)N(C)C [tetramethylthi-uram disulphide, tetramethylthiuram disulphide, reference compound]
Inhibition of growth of phytopathogenic fungi colonies, % Fusarium culmorum Tests field [1]: 98% | Inhibition of growth of phytopathogenic fungi colonies, % Aspergillus fumigatis Tests field [2]: 80% | Inhibition of growth of phytopathogenic fungi colonies, % Aspergillus niger test field [3]: 98% | Inhibition of growth of phytopathogenic fungi colonies, % Penicillium cyclopium Tests field [4]: 64% | Inhibition of growth of phytopathogenic fungi colonies, % Rhyzoctonia aderholdii test field [5]: 99% | Inhibition of growth of phytopathogenic fungi colonies, % Rhoma betae test field [6]: 59% | Inhibition of growth of phytopathogenic fungi colonies, % Fusarium culmorum Tests laboratory [7]: 100% | Inhibition of growth of phytopathogenic fungi colonies, % Aspergillus fumigatis Tests laboratory [8]: 81% | Inhibition of growth of phytopathogenic fungi colonies, % Aspergillus niger test laboratory [9]: 100% | Inhibition of growth of phytopathogenic fungi colonies, % Penicillium cyclopium Tests laboratory [10]: 65% | Inhibition of growth of phytopathogenic fungi colonies, % Rhyzoctonia aderholdii test laboratory [11]: 100% | Inhibition of growth of phytopathogenic fungi colonies, % Rhoma betae test laboratory [12]: 60%

O=C(NP(=O)(Nc1ccc(Cl)cc1Cl)Nc1ccc(Cl)cc1Cl)c1ccc(Br)cc1 [Example 13, para-bromobenzoylamidophosphoric acid di-2,4-dichloroanil-ide]
Inhibition of growth of phytopathogenic fungi colonies, % Alternaria sobani test field [13]: 100% | Inhibition of growth of phytopathogenic fungi colonies, % Venturia inaequalis test field [14]: 44% | Inhibition of growth of phytopathogenic fungi colonies, % Botrytis allii test field [15]: 100% | Inhibition of growth of phytopathogenic fungi colonies, % Rhyzoctonia violaceae test field [16]: 47% | Inhibition of growth of phytopathogenic fungi colonies, % Fusarium culmorum Tests field [1]: 93% | Inhibition of growth of phytopathogenic fungi colonies, % Verticillium albo--atrum test field [17]: 46% | Inhibition of growth of phytopathogenic fungi colonies, % Diplodia zeae test field [18]: 100% | Inhibition of growth of phytopathogenic fungi colonies, % Aspergillus fumigatis Tests field [2]: 50% | Inhibition of growth of phytopathogenic fungi colonies, % Aspergillus niger test field [3]: 34% | Inhibition of growth of phytopathogenic fungi colonies, % Fusarium oxysporum test field [19]: 43% | Inhibition of growth of phytopathogenic fungi colonies, % Penicillium cyclopium Tests field [4]: 93% | Inhibition of growth of phytopathogenic fungi colonies, % Fusatium monili-forme test field [20]: 74% | Inhibition of growth of phytopathogenic fungi colonies, % Rhyzoctonia aderholdii test field [5]: 100% | Inhibition of growth of phytopathogenic fungi colonies, % Rhoma betae test field [6]: 62% | Inhibition of growth of phytopathogenic fungi colonies, % Botrytis cinereae test field [21]: 0% | Inhibition of growth of phytopathogenic fungi colonies, % Alternaria sobani test laboratory [22]: 100% | Inhibition of growth of phytopathogenic fungi colonies, % Venturia inaequalis test laboratory [23]: 45% | Inhibition of growth of phytopathogenic fungi colonies, % Botrytis allii test laboratory [24]: 100% | Inhibition of growth of phytopathogenic fungi colonies, % Rhyzoctonia violaceae test laboratory [25]: 46% | Inhibition of growth of phytopathogenic fungi colonies, % Fusarium culmorum Tests laboratory [7]: 100% | Inhibition of growth of phytopathogenic fungi colonies, % Verticillium albo--atrum test laboratory [26]: 47% | Inhibition of growth of phytopathogenic fungi colonies, % Diplodia zeae test laboratory [27]: 100% | Inhibition of growth of phytopathogenic fungi colonies, % Aspergillus fumigatis Tests laboratory [8]: 53% | Inhibition of growth of phytopathogenic fungi colonies, % Aspergillus niger test laboratory [9]: 35% | Inhibition of growth of phytopathogenic fungi colonies, % Fusarium oxysporum test laboratory [28]: 44% | Inhibition of growth of phytopathogenic fungi colonies, % Penicillium cyclopium Tests laboratory [10]: 100% | Inhibition of growth of phytopathogenic fungi colonies, % Fusatium monili-forme test laboratory [29]: 75% | Inhibition of growth of phytopathogenic fungi colonies, % Rhyzoctonia aderholdii test laboratory [11]: 100% | Inhibition of growth of phytopathogenic fungi colonies, % Rhoma betae test laboratory [12]: 64% | Inhibition of growth of phytopathogenic fungi colonies, % Botrytis cinereae test laboratory [30]: 0%

Cc1ccc(C)c(NP(=O)(NC(=O)c2ccc(Cl)cc2)Nc2cc(C)ccc2C)c1 [Example 2, di-2,5-dimethylanil-ide of para-chlorobenzoylamidophosphoric acid]
Death of flies, % tests laboratory [31]: 92% | solubility [32]: soluble in water, alcohols, acetone | Death of flies, % tests large-scale [33]: 91%

O=C(NP(=O)(Nc1ccc(Cl)cc1Cl)Nc1ccc(Cl)cc1Cl)c1ccc(Br)cc1 [Example 6, para-bromobenzoilamidophosphoric acid di-2,4-dichloranilide]
Death of flies, % tests laboratory [31]: 100% | solubility [32]: soluble in water, alcohols, acetone | Death of flies, % tests large-scale [33]: 100%

COP(=O)(NC(=O)c1ccc(Cl)c([N+](=O)[O-])c1)OC [Example 7, dimethyl ether of 3-mitro-4-chlorobenzoylamidiphos-phoric acid]
Death of flies, % tests laboratory [31]: 76% | solubility [32]: soluble in water, alcohols, acetone | Death of flies, % tests large-scale [33]: 75%

O=C(NP(=O)(Nc1ccccc1Cl)Nc1ccccc1Cl)c1ccc(Br)cc1 [Example 5, para-bromo- bensoylamidophosphoric acid di-ortho-chloranilide]
Death of flies, % tests laboratory [31]: 100% | Death of flies, % tests large-scale [33]: 100%

O=C(NP(=O)(Nc1ccccc1)Nc1ccccc1)c1ccc(Br)cc1 [Example 4, para-bromobenzoilamidophosphoric acid dianilide]
Death of flies, % tests laboratory [31]: 94% | solubility [32]: soluble in water, alcohols, acetone | Death of flies, % tests large-scale [33]: 93%

O=C1C(Cl)=C(Cl)C(=O)c2ccccc21 [2,3-dichloro--1,4-naphtho-quinone, 2,3-dichloro-1,4-naphthoquinone, reference compound]
Inhibition of growth of phytopathogenic fungi colonies, % Venturia inaequalis test field [14]: 39% | Inhibition of growth of phytopathogenic fungi colonies, % Rhyzoctonia violaceae test field [16]: 32% | Inhibition of growth of phytopathogenic fungi colonies, % Verticillium albo--atrum test field [17]: 52% | Inhibition of growth of phytopathogenic fungi colonies, % Fusatium monili-forme test field [20]: 54% | Inhibition of growth of phytopathogenic fungi colonies, % Botrytis cinereae test field [21]: 37% | Inhibition of growth of phytopathogenic fungi colonies, % Venturia inaequalis test laboratory [23]: 40% | Inhibition of growth of phytopathogenic fungi colonies, % Rhyzoctonia violaceae test laboratory [25]: 34% | Inhibition of growth of phytopathogenic fungi colonies, % Verticillium albo--atrum test laboratory [26]: 53% | Inhibition of growth of phytopathogenic fungi colonies, % Fusatium monili-forme test laboratory [29]: 55% | Inhibition of growth of phytopathogenic fungi colonies, % Botrytis cinereae test laboratory [30]: 38%

O=C(CCl)NP(=O)(NCc1ccccc1)NCc1ccccc1 [Example 1, chloroacetylamidophosphoric acid dibenzylamide]
Death of flies, % tests laboratory [31]: 94% | solubility [32]: soluble in water, alcohols acetone | Death of flies, % tests large-scale [33]: 93%

CCOP(=O)(NC(=O)c1ccc(Cl)c([N+](=O)[O-])c1)OCC [Example 8, diethyl ether of 3-nitro-4-chlorobenzoylamidophosphoric acid]
Death of flies, % tests laboratory [31]: 98% | solubility [32]: soluble in water, alcohols, acetone | Death of flies, % tests large-scale [33]: 97%

O=C(NP(=O)(Nc1cccc(Cl)c1)Nc1cccc(Cl)c1)c1ccc(Cl)cc1 [Example 3, di-meta- chloranilide pf para-chlorobenzoylamidophosphoric acid]
Death of flies, % tests laboratory [31]: 87% | solubility [32]: soluble in water, alcohols, acetone | Death of flies, % tests large-scale [33]: 86%

— EP0407583A1, “DERIVATIVES OF DICHLOR[…] ACYLAMIDO[…] AND INSECTICIDAL, FU[…] HEMATOCIDAL PREPARATIONS BASED ON THEM” (priority 1989, dated 1990)
